These compounds were tested on Human venous whole blood (IFN-γ) (assay: Human whole blood IFN-γ assay). Conditions: Homo sapiens, 24 h, human whole blood, anti-CD3 plus anti-CD28, 24 hours; read-out: INFg Whole Blood Normalized Agonist EC50.
Format: cell-based
Method: Assay 10: Human Whole Blood IFN-γ Assay
Human venous whole blood (22.5 μL per well), obtained from healthy donors, was pre-treated with compounds for one hour at 37° C. in a humidified 95% air/5% CO2 incubator. The blood was stimulated with 2.5 μL anti-human CD3 and anti-CD28 mAb at a final concentration of 1 μg/mL each for 24 hours at 37° C. IFN-γ in the supernatants was measured using AlphLISA kit (Cat #AL217).

Row | Compound | EC50
1 | CC[C@@H]1CN(c2cc(=O)n(C)c3ccc(C#N)nc23)CC[C@H]1Oc1ccc(C(C)(C)CC)cc1 (single isomer, unassigned) [Example 150] | 1400 nM
2 | C[C@@H]1CN(c2cc(=O)n(C)c3ccc(C#N)nc23)CC[C@H]1Oc1ccc(C(C)(C)C)cc1 [Example 88, 8-((3R,4R)-4-(4-(tert-butyl)phenoxy)-3-methylpiperidin-1-yl)-5-methyl-6-oxo-5,6-dihydro-1,5-naphthyridine-2-carbonitrile] | 880 nM
3 | C[C@@H]1CN(c2cc(=O)n(C)c3ccc(C#N)nc23)CC[C@H]1Oc1c(F)cccc1F [Example 125, 8-((3R,4R)-4-(2,6-difluorophenoxy)-3-methylpiperidin-1-yl)-5-methyl-6-oxo-5,6-dihydro-1,5-naphthyridine-2-carbonitrile] | 20000 nM
4 | C[C@@H]1CN(c2cc(=O)n(C)c3ccc(C#N)nc23)CC[C@H]1Oc1ccc(F)cc1 [Example 128, 8-((3R,4R)-4-(4-fluorophenoxy)-3-methylpiperidin-1-yl)-5-methyl-6-oxo-5,6-dihydro-1,5-naphthyridine-2-carbonitrile] | 20000 nM
5 | CC[C@@H]1CN(c2cc(=O)n(C)c3ccc(C#N)nc23)CC[C@H]1Oc1cccc(C2CC2)c1 [Example 156, 8-((3R,4R)-4-(3-cyclopropylphenoxy)-3-ethylpiperidin-1-yl)-5-methyl-6-oxo-5,6-dihydro-1,5-naphthyridine-2-carbonitrile] | 1800 nM

Same assay, conditions: Homo sapiens, human whole blood IFN-γ; read-out: INFg Whole Blood

Row | Compound | EC50
6 | CC(C)c1cccc(O[C@H]2CCN(c3cc(=O)n(C)c4ccc(C#N)nc34)C[C@H]2C)n1 (single isomer, unassigned) [Example 215] | 2100 nM
7 | C[C@@H]1CN(c2cc(=O)n(C)c3ccc(C#N)nc23)CC[C@@H]1Oc1ccc(C(F)(F)F)cn1 (single isomer, unassigned) [Example 226] | 2400 nM
8 | C[C@@H]1CN(c2c(C#N)c(=O)n(C)c3ccc(C#N)nc23)CC[C@@H]1Oc1ccc(C(F)(F)F)cc1 [Example 189, 5-methyl-8-((3R,4S)-3-methyl-4-(4-(trifluoromethyl)phenoxy)piperidin-1-yl)-6-oxo-5,6-dihydro-1,5-naphthyridine-2,7-dicarbonitrile] | 20000 nM
9 | CCCc1cc(O[C@@H]2CCN(c3cc(=O)n(C)c4ccc(C#N)nc34)C[C@H]2CC)ccc1F [Example 195, 8-((3R,4R)-3-ethyl-4-(4-fluoro-3-propylphenoxy)piperidin-1-yl)-5-methyl-6-oxo-5,6-dihydro-1,5-naphthyridine-2-carbonitrile] | 330 nM
10 | CC(C)c1ccc(O[C@H]2CCN(c3cc(=O)n(C)c4ccc(C#N)nc34)C[C@H]2C)nc1 [Example 205, 8-((3R,4S)-4-((5-isopropylpyridin-2-yl)oxy)-3-methylpiperidin-1-yl)-5-methyl-6-oxo-5,6-dihydro-1,5-naphthyridine-2-carbonitrile] | 370 nM
11 | C[C@@H]1CN(c2cc(=O)n(C)c3ccc(C#N)nc23)CC[C@@H]1Oc1ccc(C(F)F)cn1 [Example 208, 8-((3R,4S)-4-((5-(difluoromethyl)pyridin-2-yl)oxy)-3-methylpiperidin-1-yl)-5-methyl-6-oxo-5,6-dihydro-1,5-naphthyridine-2-carbonitrile] | 2100 nM
12 | CC(C)c1ccnc(O[C@H]2CCN(c3cc(=O)n(C)c4ccc(C#N)nc34)C[C@H]2C)c1 [Example 211, 8-((3R,4S)-4-((4-isopropylpyridin-2-yl)oxy)-3-methylpiperidin-1-yl)-5-methyl-6-oxo-5,6-dihydro-1,5-naphthyridine-2-carbonitrile] | 3900 nM
13 | CC(C)c1cccc(O[C@H]2CCN(c3cc(=O)n(C)c4ccc(C#N)nc34)C[C@H]2C)n1 [Example 214, 8-((3R,4S)-4-((6-isopropylpyridin-2-yl)oxy)-3-methylpiperidin-1-yl)-5-methyl-6-oxo-5,6-dihydro-1,5-naphthyridine-2-carbonitrile] | 5000 nM

Same assay, conditions: Homo sapiens, read-out: INFg Whole Blood, human whole blood IFN-γ

Row | Compound | EC50
14 | CC[C@@H]1CN(c2cc(=O)n(C)c3ccc(C#N)nc23)CC[C@H]1Oc1cccc(C(C)(C)C)c1 [Example 196, 8-((3R,4R)-4-(3-(tert-butyl)phenoxy)-3-ethylpiperidin-1-yl)-5-methyl-6-oxo-5,6-dihydro-1,5-naphthyridine-2-carbonitrile] | 290 nM
15 | CC[C@@H]1CN(c2cc(=O)n(C)c3ccc(C#N)nc23)CC[C@@H]1Oc1ccc(OC(C)C)cn1 [Example 202, 8-((3R,4S)-3-ethyl-4-((5-isopropoxypyridin-2-yl)oxy)piperidin-1-yl)-5-methyl-6-oxo-5,6-dihydro-1,5-naphthyridine-2-carbonitrile] | 2000 nM

Same assay, conditions: human whole blood IFN-γ; read-out: INFg Whole Blood

Row | Compound | EC50
16 | C[C@@H]1CN(c2cc(=O)n(C)c3ccc(C#N)nc23)CC[C@@H]1Oc1ccc(C(F)(F)F)cc1 (single isomer, unassigned) [Example 188, 5-methyl-8-(cis-3-methyl-4-(4-(trifluoromethyl)phenoxy)piperidin-1-yl)-6-oxo-5,6-dihydro-1,5-naphthyridine-2-carbonitrile (rel)] | 6400 nM
17 | CC(C)c1ccnc(O[C@H]2CCN(c3cc(=O)n(C)c4ccc(C#N)nc34)C[C@H]2C)c1 (single isomer, unassigned) [Example 212] | 1900 nM
18 | CC(C)c1ccnc(O[C@H]2CCN(c3cc(=O)n(C)c4ccc(C#N)nc34)C[C@H]2C)c1 (single isomer, unassigned) [Example 213] | 4900 nM
19 | C[C@@H]1CN(c2cc(=O)n(C)c3ccc(C#N)nc23)CC[C@@H]1Oc1ccc(C(F)(F)F)cn1 (single isomer, unassigned) [Example 227] | 4200 nM
20 | CC(C)Oc1ccc(OC2CCN(c3cc(=O)n(C)c4ccc(C#N)nc34)CC2(C)C)nc1 (single isomer, unassigned) [Example 233, 8-(4-((5-isopropoxypyridin-2-yl)oxy)-3,3-dimethylpiperidin-1-yl)-5-methyl-6-oxo-5,6-dihydro-1,5-naphthyridine-2-carbonitrile (rel)] | 3300 nM
21 | CC(C)Oc1ccc(OC2CCN(c3cc(=O)n(C)c4ccc(C#N)nc34)CC2(C)C)nc1 (single isomer, unassigned) [Example 234, 8-(4-((5-isopropoxypyridin-2-yl)oxy)-3,3-dimethylpiperidin-1-yl)-5-methyl-6-oxo-5,6-dihydro-1,5-naphthyridine-2-carbonitrile (rel)] | 9300 nM

Same assay, conditions: human whole blood, anti-CD3 plus anti-CD28, 24 hours; read-out: INFg Whole Blood Normalized Agonist EC50

Row | Compound | EC50
22 | CC[C@@H]1CN(c2cc(=O)n(C)c3ccc(C#N)nc23)CC[C@H]1Oc1ccc(C(C)C)cc1 (single isomer, unassigned) [Example 145] | 7800 nM
23 | CC[C@@H]1CN(c2cc(=O)n(C)c3ccc(C#N)nc23)CC[C@H]1Oc1ccc(C(F)(F)F)cc1 (single isomer, unassigned) [Example 148] | 12000 nM
24 | CC[C@@H]1CN(c2cc(=O)n(C)c3ccc(C#N)nc23)CC[C@H]1Oc1ccc(C(C)(C)CC)cc1 (single isomer, unassigned) [Example 151] | 2400 nM
25 | CC[C@@H]1CN(c2cc(=O)n(C)c3ccc(C#N)nc23)CC[C@H]1Oc1ccc(C(C)(C)C)cc1 (single isomer, unassigned) [Example 153] | 1700 nM
26 | CC[C@@H]1CN(c2cc(=O)n(C)c3ccc(C#N)nc23)CC[C@H]1Oc1ccc(C(C)(C)C)cc1 (single isomer, unassigned) [Example 154] | 11000 nM
27 | CC[C@@H]1CN(c2cc(=O)n(C)c3ccc(C#N)nc23)CC[C@H]1Oc1cccc(C2CC2)c1 [Example 157, 8-((3R,4R)-4-(3-cyclopropylphenoxy)-3-ethylpiperidin-1-yl)-5-methyl-6-oxo-5,6-dihydro-1,5-naphthyridine-2-carbonitrile] | 2800 nM

From US11964973B2 (priority 2019, dated 2024)
